Data reported in the supplement of paper PMC10307832.

How the values were obtained:
Test in all cases: relative viability (nuclei count vs DMSO), 5 days (fraction); higher = more cells survive
NCI-H1395 = system: NCI-H1395
Summary of the method: (§1)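 Cells from lung cancer lines were seeded into 1536-well plates and, one day later, dosed by pin tool. Treatments were either a single drug or a fixed dose of an anchor drug with five library-drug doses (not always all listed) in √10 steps. After 5 days, nuclei were stained in a one-step fixation (final 0.05% Triton X-100, 1% formaldehyde, 1 ug/ml Hoechst) and counted on 4× images, and relative viability is the treated-to-vehicle nuclei ratio, as the median of duplicate plates.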

HARA = system: HARA
Summary of the method: as §1

SK-LU-1 = system: SK-LU-1
Summary of the method: as §1

NCI-H1975 = system: NCI-H1975
Summary of the method: as §1

NCI-H2228 = system: NCI-H2228
Summary of the method: as §1

NCI-H1915 = system: NCI-H1915
Summary of the method: as §1

NCI-H1755 = system: NCI-H1755
Summary of the method: as §1

HCC-366 = system: HCC-366
Summary of the method: as §1

CAL-12T = system: CAL-12T
Summary of the method: as §1

HCC-827 = system: HCC-827
Summary of the method: as §1

EMC-BAC-2 = system: EMC-BAC-2
Summary of the method: as §1

NCI-H2009 = system: NCI-H2009
Summary of the method: as §1

NCI-H1355 = system: NCI-H1355
Summary of the method: as §1

NCI-H1437 = system: NCI-H1437
Summary of the method: as §1

NCI-H727 = system: NCI-H727
Summary of the method: as §1

NCI-H1792 = system: NCI-H1792
Summary of the method: as §1

NCI-H23 = system: NCI-H23
Summary of the method: as §1

LCLC-103H = system: LCLC-103H
Summary of the method: as §1

COR-L 105 = system: COR-L 105
Summary of the method: as §1

NCI-H460 = system: NCI-H460
Summary of the method: as §1

SW 1573 = system: SW 1573
Summary of the method: as §1

HOP-62 = system: HOP-62
Summary of the method: as §1

A-427 = system: A-427
Summary of the method: as §1

## C=C1C(=O)O[C@@H](CCCCCCCC)[C@@H]1C(=O)O [C-75] + COc1cccc2cc(-c3nc([C@H]4CC[C@H](C(=O)O)CC4)n4ncnc(N)c34)[nH]c12 [OSI-027] (partner 0.5 µM)
NCI-H1395; first compound 0.08 µM
  relative viability: 0.669
NCI-H1395; first compound 0.253 µM
  relative viability: 0.624
NCI-H1395; first compound 0.8 µM
  relative viability: 0.556
NCI-H1395; first compound 2.53 µM
  relative viability: 0.667
NCI-H1395; first compound 8 µM
  relative viability: 0.649
HARA; first compound 0.08 µM
  relative viability: 0.634
HARA; first compound 0.253 µM
  relative viability: 0.587
HARA; first compound 0.8 µM
  relative viability: 0.513
HARA; first compound 2.53 µM
  relative viability: 0.31
HARA; first compound 8 µM
  relative viability: 0.441
SK-LU-1; first compound 0.08 µM
  relative viability: 0.348
SK-LU-1; first compound 0.253 µM
  relative viability: 0.379
SK-LU-1; first compound 0.8 µM
  relative viability: 0.416
SK-LU-1; first compound 2.53 µM
  relative viability: 0.319
SK-LU-1; first compound 8 µM
  relative viability: 0.308
NCI-H1975; first compound 0.08 µM
  relative viability: 0.842
NCI-H1975; first compound 0.253 µM
  relative viability: 0.672
NCI-H1975; first compound 0.8 µM
  relative viability: 0.679
NCI-H1975; first compound 2.53 µM
  relative viability: 0.436
NCI-H1975; first compound 8 µM
  relative viability: 0.717
NCI-H2228; first compound 0.08 µM
  relative viability: 0.534
NCI-H2228; first compound 0.253 µM
  relative viability: 0.686
NCI-H2228; first compound 0.8 µM
  relative viability: 0.398
NCI-H2228; first compound 2.53 µM
  relative viability: 0.302
NCI-H2228; first compound 8 µM
  relative viability: 0.517
NCI-H1915; first compound 0.08 µM
  relative viability: 0.656
NCI-H1915; first compound 0.253 µM
  relative viability: 0.588
NCI-H1915; first compound 0.8 µM
  relative viability: 0.61
NCI-H1915; first compound 2.53 µM
  relative viability: 0.382
NCI-H1915; first compound 8 µM
  relative viability: 0.588
NCI-H1755; first compound 0.08 µM
  relative viability: 0.767
NCI-H1755; first compound 0.253 µM
  relative viability: 0.724
NCI-H1755; first compound 0.8 µM
  relative viability: 0.711
NCI-H1755; first compound 2.53 µM
  relative viability: 0.604
NCI-H1755; first compound 8 µM
  relative viability: 0.72
HCC-366; first compound 0.08 µM
  relative viability: 1.06
HCC-366; first compound 0.253 µM
  relative viability: 1.31
HCC-366; first compound 0.8 µM
  relative viability: 0.897
HCC-366; first compound 8 µM
  relative viability: 0.834
CAL-12T; first compound 0.08 µM
  relative viability: 0.862
CAL-12T; first compound 0.253 µM
  relative viability: 1.06
CAL-12T; first compound 0.8 µM
  relative viability: 0.697
CAL-12T; first compound 2.53 µM
  relative viability: 0.592
CAL-12T; first compound 8 µM
  relative viability: 0.63
HCC-827; first compound 0.08 µM
  relative viability: 0.757
HCC-827; first compound 0.253 µM
  relative viability: 0.826
HCC-827; first compound 0.8 µM
  relative viability: 0.751
HCC-827; first compound 2.53 µM
  relative viability: 0.597
HCC-827; first compound 8 µM
  relative viability: 0.758
EMC-BAC-2; first compound 0.08 µM
  relative viability: 0.416
EMC-BAC-2; first compound 0.253 µM
  relative viability: 0.385
EMC-BAC-2; first compound 0.8 µM
  relative viability: 0.384
EMC-BAC-2; first compound 2.53 µM
  relative viability: 0.269
EMC-BAC-2; first compound 8 µM
  relative viability: 0.341
NCI-H2009; first compound 0.08 µM
  relative viability: 0.675
NCI-H2009; first compound 0.253 µM
  relative viability: 0.686
NCI-H2009; first compound 0.8 µM
  relative viability: 0.567
NCI-H2009; first compound 2.53 µM
  relative viability: 0.545
NCI-H2009; first compound 8 µM
  relative viability: 0.426
NCI-H1355; first compound 0.08 µM
  relative viability: 0.49
NCI-H1355; first compound 0.253 µM
  relative viability: 0.441
NCI-H1355; first compound 0.8 µM
  relative viability: 0.391
NCI-H1355; first compound 2.53 µM
  relative viability: 0.348
NCI-H1355; first compound 8 µM
  relative viability: 0.5
NCI-H1437; first compound 0.08 µM
  relative viability: 0.842
NCI-H1437; first compound 0.253 µM
  relative viability: 0.871
NCI-H1437; first compound 0.8 µM
  relative viability: 0.867
NCI-H1437; first compound 2.53 µM
  relative viability: 0.57
NCI-H1437; first compound 8 µM
  relative viability: 0.914
NCI-H727; first compound 0.08 µM
  relative viability: 0.893
NCI-H727; first compound 0.253 µM
  relative viability: 0.894
NCI-H727; first compound 0.8 µM
  relative viability: 0.575
NCI-H727; first compound 8 µM
  relative viability: 0.98
NCI-H1792; first compound 0.08 µM
  relative viability: 0.694
NCI-H1792; first compound 0.253 µM
  relative viability: 0.695
NCI-H1792; first compound 0.8 µM
  relative viability: 0.636
NCI-H1792; first compound 2.53 µM
  relative viability: 0.419
NCI-H1792; first compound 8 µM
  relative viability: 0.712
NCI-H23; first compound 0.08 µM
  relative viability: 0.742
NCI-H23; first compound 0.253 µM
  relative viability: 0.698
NCI-H23; first compound 0.8 µM
  relative viability: 0.575
NCI-H23; first compound 2.53 µM
  relative viability: 0.375
NCI-H23; first compound 8 µM
  relative viability: 0.448
LCLC-103H; first compound 0.08 µM
  relative viability: 0.471
LCLC-103H; first compound 0.253 µM
  relative viability: 0.495
LCLC-103H; first compound 0.8 µM
  relative viability: 0.432
LCLC-103H; first compound 2.53 µM
  relative viability: 0.337
LCLC-103H; first compound 8 µM
  relative viability: 0.472
COR-L 105; first compound 0.08 µM
  relative viability: 0.709
COR-L 105; first compound 0.253 µM
  relative viability: 0.757
COR-L 105; first compound 0.8 µM
  relative viability: 0.648
COR-L 105; first compound 2.53 µM
  relative viability: 0.515
COR-L 105; first compound 8 µM
  relative viability: 0.696
NCI-H460; first compound 0.08 µM
  relative viability: 0.664
NCI-H460; first compound 0.253 µM
  relative viability: 0.751
NCI-H460; first compound 0.8 µM
  relative viability: 0.59
NCI-H460; first compound 8 µM
  relative viability: 0.527
SW 1573; first compound 0.08 µM
  relative viability: 0.705
SW 1573; first compound 0.253 µM
  relative viability: 0.709
SW 1573; first compound 0.8 µM
  relative viability: 0.555
SW 1573; first compound 2.53 µM
  relative viability: 0.634
SW 1573; first compound 8 µM
  relative viability: 0.519
HOP-62; first compound 0.08 µM
  relative viability: 0.816
HOP-62; first compound 0.253 µM
  relative viability: 0.825
HOP-62; first compound 0.8 µM
  relative viability: 0.865
HOP-62; first compound 2.53 µM
  relative viability: 0.738
HOP-62; first compound 8 µM
  relative viability: 0.705
A-427; first compound 0.08 µM
  relative viability: 0.516
A-427; first compound 0.253 µM
  relative viability: 0.51
A-427; first compound 0.8 µM
  relative viability: 0.488
A-427; first compound 2.53 µM
  relative viability: 0.439
A-427; first compound 8 µM
  relative viability: 0.39
